Results reported in patent US11839651B2, “Immunogenic compositions and uses thereof” (INSTITUTE FOR RESEARCH IN BIO-MEDICINE, priority 2015, dated 2023).

Test system: Tfh cells (via P2X7)
Experiment: Epithelial permeability to ATP: Tfh cell recovery in Peyer's patches after daily gavage
Type: in vivo
Settings: wild type mice, two weeks after treatment
Text: In order to assess epithelial permeability to ATP in the small intestine, mice were gavaged daily with ATPγS (a non-hydrolysable analogue of ATP). As Tfh cells are sensitive to extracellular ATP via P2X7 the inventors analysed Tfh cell recovery in Peyer's patches two weeks after treatment.

In the case of Nc1ncnc2c1ncn2[C@@H]1O[C@H](COP(=O)(O)OP(=O)(O)OP(O)(O)=S)[C@@H](O)[C@H]1O [ATPγS], the “Tfh cells in Peyer's patches” value is reported as “significant reduction”.
